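Exposure lasted 48 hours, with cells grown in 96-well plates and compounds tested at five concentrations. GI50 is the concentration that inhibits growth by half.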 The source made the active and inactive calls. No stated cut-off is given here; in the data, active = GI50 up to about 1.1 µM and inactive = higher.
What was measured:
Assay in all cases: growth of human tumour cells (NCI), 48 h
ACHN = test system: ACHN
K562 = test system: K562
COLO 205 = test system: COLO 205
NCI-H460 = test system: NCI-H460
SR = test system: SR
RPMI-8226 = test system: RPMI-8226
SNB-19 = test system: SNB-19
M14 = test system: M14
SK-MEL-2 = test system: SK-MEL-2
OVCAR-4 = test system: OVCAR-4
SK-OV-3 = test system: SK-OV-3
786-0 = test system: 786-0
NCI-H23 = test system: NCI-H23
MOLT-4 = test system: MOLT-4
OVCAR-3 = test system: OVCAR-3
MCF7 = test system: MCF7
UACC-62 = test system: UACC-62
LOX IMVI = test system: LOX IMVI
Malme-3M = test system: Malme-3M
HCT-116 = test system: HCT-116
NCI-H226 = test system: NCI-H226
TK-10 = test system: TK-10
CCRF-CEM = test system: CCRF-CEM
OVCAR-8 = test system: OVCAR-8
CAKI-1 = test system: CAKI-1
MDA-N = test system: MDA-N
MDA-MB-435 = test system: MDA-MB-435
U-251 = test system: U-251
SNB-75 = test system: SNB-75
SW-620 = test system: SW-620
HCC 2998 = test system: HCC 2998
HCT-15 = test system: HCT-15
Hs-578T = test system: Hs-578T
HT-29 = test system: HT-29
EKVX = test system: EKVX
HOP-92 = test system: HOP-92
SN12C = test system: SN12C
IGROV-1 = test system: IGROV-1
HOP-62 = test system: HOP-62
PC-3 = test system: PC-3
RXF 393 = test system: RXF 393
T47D = test system: T47D
SK-MEL-5 = test system: SK-MEL-5
SF-539 = test system: SF-539
DU-145 = test system: DU-145
SF-268 = test system: SF-268
NCI/ADR-RES = test system: NCI/ADR-RES
OVCAR-5 = test system: OVCAR-5
BT-549 = test system: BT-549
UO-31 = test system: UO-31
A498 = test system: A498
HL-60 = test system: HL-60
MDA-MB-231 = test system: MDA-MB-231
SF-295 = test system: SF-295
SK-MEL-28 = test system: SK-MEL-28
A549 = test system: A549
UACC-257 = test system: UACC-257
NCI-H522 = test system: NCI-H522
KM12 = test system: KM12

`C=C(C)[C@@]12C[C@H](OC(=O)[C@H](O)[C@@H](NC(=O)c3ccccc3)c3ccccc3)C(C)=C1[C@@H](OC(C)=O)C(=O)[C@@]1(C)C([C@@H]2OC(=O)c2cc(F)cc(F)c2)C2(OC(C)=O)CO[C@@H]2C[C@@H]1O` (some centres undefined) was tested, and the GI50 (ACHN) was 555 nM (active), the GI50 (K562) was 36.1 nM (active) and the GI50 (COLO 205) was 78.9 nM (active). The GI50 (NCI-H460) was 34.8 nM (active), the GI50 (SR) was 169 nM (active) and the GI50 (RPMI-8226) was 23.6 nM (active). The GI50 (SNB-19) was 238 nM (active), the GI50 (M14) was 141 nM (active) and the GI50 (SK-MEL-2) was 144 nM (active). For the same compound, the GI50 (OVCAR-4) was 2380 nM (inactive), the GI50 (SK-OV-3) was 417 nM (active) and the GI50 (786-0) was 85.3 nM (active). For the same compound, the GI50 (NCI-H23) was 152 nM (active), the GI50 (MOLT-4) was 42.8 nM (active) and the GI50 (OVCAR-3) was 122 nM (active). For the same compound, the GI50 (MCF7) was 29 nM (active), the GI50 (UACC-62) was 76 nM (active) and the GI50 (LOX IMVI) was 79.1 nM (active). For the same compound, the GI50 (Malme-3M) was 461 nM (active), the GI50 (HCT-116) was 20.1 nM (active) and the GI50 (NCI-H226) was 883 nM (active). The GI50 (TK-10) was 300 nM (active), the GI50 (CCRF-CEM) was 36.7 nM (active) and the GI50 (OVCAR-8) was 65 nM (active). For the same compound, the GI50 (CAKI-1) was 525 nM (active), the GI50 (MDA-N) was 13.3 nM (active) and the GI50 (MDA-MB-435) was 11.7 nM (active). The GI50 (U-251) was 82.2 nM (active), the GI50 (SNB-75) was 96.6 nM (active) and the GI50 (SW-620) was 50.5 nM (active). For the same compound, the GI50 (HCC 2998) was 66.8 nM (active), the GI50 (HCT-15) was 292 nM and the GI50 (Hs-578T) was 18.6 nM (active). For the same compound, the GI50 (HT-29) was 27.8 nM (active), the GI50 (EKVX) was 1020 nM (active) and the GI50 (HOP-92) was 2400 nM (inactive). The GI50 (SN12C) was 144 nM (active), the GI50 (IGROV-1) was 361 nM (active) and the GI50 (HOP-62) was 123 nM (active). The GI50 (PC-3) was 82.6 nM (active), the GI50 (RXF 393) was 57.8 nM (active) and the GI50 (T47D) was 117 nM (active). For the same compound, the GI50 (SK-MEL-5) was 117 nM (active), the GI50 (SF-539) was 28.2 nM (active) and the GI50 (DU-145) was 267 nM (active). For the same compound, the GI50 (SF-268) was 161 nM (active), the GI50 (NCI/ADR-RES) was 1570 nM (inactive) and the GI50 (OVCAR-5) was 165 nM (active). The GI50 (BT-549) was 194 nM (active), the GI50 (UO-31) was 973 nM (active) and the GI50 (A498) was 164 nM (active). For the same compound, the GI50 (HL-60) was 26.9 nM (active), the GI50 (MDA-MB-231) was 210 nM (active) and the GI50 (SF-295) was > 10000 nM (inactive). The GI50 (SK-MEL-28) was 363 nM (active), the GI50 (A549) was 75.2 nM (active) and the GI50 (UACC-257) was 79.6 nM (active).

In the case of `CN(C)c1ccccc1CN1CCCN(Cc2ccccc2N(C)C)C1c1ccncc1`, the GI50 (ACHN) is reported as 24800 nM (inactive), the GI50 (K562) is reported as 7410 nM (inactive) and the GI50 (COLO 205) is reported as 14900 nM (inactive). For the same compound, the GI50 (NCI-H460) was 14000 nM (inactive), the GI50 (SR) was 4910 nM (inactive) and the GI50 (RPMI-8226) was 5750 nM (inactive). For the same compound, the GI50 (SNB-19) was 12900 nM (inactive), the GI50 (M14) was 2330 nM (inactive) and the GI50 (SK-MEL-2) was 17800 nM (inactive). The GI50 (OVCAR-4) was 15000 nM (inactive), the GI50 (SK-OV-3) was 16500 nM (inactive) and the GI50 (786-0) was 13100 nM (inactive). The GI50 (NCI-H23) was 18300 nM (inactive), the GI50 (MOLT-4) was 18100 nM (inactive) and the GI50 (OVCAR-3) was 14600 nM (inactive). The GI50 (MCF7) was 15900 nM (inactive), the GI50 (NCI-H522) was 13000 nM (inactive) and the GI50 (UACC-62) was 14400 nM (inactive). For the same compound, the GI50 (LOX IMVI) was 13600 nM (inactive), the GI50 (Malme-3M) was 10400 nM (inactive) and the GI50 (HCT-116) was 11200 nM (inactive). The GI50 (NCI-H226) was 21400 nM (inactive), the GI50 (TK-10) was 14400 nM (inactive) and the GI50 (OVCAR-8) was 15400 nM (inactive). The GI50 (CAKI-1) was 16700 nM (inactive), the GI50 (MDA-N) was 10300 nM (inactive) and the GI50 (MDA-MB-435) was 6280 nM (inactive). For the same compound, the GI50 (U-251) was 23000 nM (inactive), the GI50 (SNB-75) was 17600 nM (inactive) and the GI50 (SW-620) was 16300 nM (inactive). For the same compound, the GI50 (HCT-15) was 22200 nM, the GI50 (Hs-578T) was 17700 nM (inactive) and the GI50 (HT-29) was 11600 nM (inactive). For the same compound, the GI50 (EKVX) was 13700 nM (inactive), the GI50 (HOP-92) was 3470 nM (inactive) and the GI50 (SN12C) was 20400 nM (inactive). For the same compound, the GI50 (IGROV-1) was 14900 nM (inactive), the GI50 (HOP-62) was 15400 nM (inactive) and the GI50 (PC-3) was 17900 nM (inactive). The GI50 (RXF 393) was 10200 nM (inactive), the GI50 (T47D) was 17700 nM (inactive) and the GI50 (SK-MEL-5) was 5360 nM (inactive). For the same compound, the GI50 (SF-539) was 16400 nM (inactive), the GI50 (DU-145) was 16900 nM (inactive) and the GI50 (SF-268) was 18800 nM (inactive). For the same compound, the GI50 (NCI/ADR-RES) was 24100 nM (inactive), the GI50 (OVCAR-5) was 14100 nM (inactive) and the GI50 (BT-549) was 16900 nM (inactive). For the same compound, the GI50 (UO-31) was 5020 nM (inactive), the GI50 (A498) was 12400 nM (inactive) and the GI50 (HL-60) was 13000 nM (inactive). The GI50 (MDA-MB-231) was 14700 nM (inactive), the GI50 (SF-295) was 15300 nM (inactive) and the GI50 (SK-MEL-28) was 9060 nM (inactive). The GI50 (KM12) was 19100 nM (inactive), the GI50 (A549) was 17400 nM (inactive) and the GI50 (UACC-257) was 2420 nM (inactive).

Reference: ChEMBL document CHEMBL1201862, “PubChem BioAssay data set” (2004)
